Assay results taken from patent US5436229A, “Bisulfite adducts of arginine aldehydes” (Eli Lilly and Company, priority 1994, dated 1995).
Non-standard residues stand in square brackets, D forms with d. Residues, ends and D or L forms follow the SMILES beside them. dNMeCha = CN[C@H](CC1CCCCC1)C(=O)O

Tests used:
[1] = Epimerization inhibition by sodium bisulfite (compound of Example 80, Step F); type: physicochemical; conditions: pH 7.4, 50° C.
Procedure: A 55.55 mM aqueous sodium phosphate solution (adjusted pH 7.4 with sodium hydroxide) was mixed with a 27.77 mM sodium bisulfite/27.77 mM sodium phosphate solution (adjusted pH 7.4 with sodium hydroxide) and water in various ratios to produce buffers containing 0,5.55, 16.66 and 27.77 mM sodium bisulfite. A 0.9 ml aliquot of each sodium bisulfite/phosphate buffer was added to separate 13×100 mm culture tubes and placed in a 50° C. Isotherm Tempblok® heater for 15 minutes. To each culture tube 0.1 ml of a 1 mg/ml aqueous solution of D-3-Piq-Pro-Arg-H.H2 SO4 (Example 80, Step F) was added and mixed well. […] These samples were allowed to react for 15 minutes at 90° C. and were then evaporated to dryness with nitrogen in a 55° C. N-Evap. The residue was dissolved in 1 ml of methanol and transferred to Varian Si BondElut SPE columns (1 ml) previously conditioned with 1 ml of water then 1 ml of methanol. The dissolved samples were pulled through solwly with a slight vacuum, and the sorbent layer was then washed with 2-1 ml volumes of methanol. The SPE columns were then dried at full vacuum (~25 in. Hg) and the compounds of interest were eluted with 300 μl of acetonitrile/100 mM sodium dodecyl sulfate (adjusted to pH 3 with phosphoric acid) (7:3, v/v) into 12×75 mm culture tubes. These eluates were analyzed by the HPLC system described below.
The mobile phase was acetonitrile/180 mM sodium dodecyl sulfate (adjusted to pH 3 with phosphoric acid) (85:15, v/v) pumped at 0.5 ml/min with a Shimadzu LC-10AD pump. The column was an Inertsil ODS(2) 150×3.0 mm maintained at 40° C. with a Jones Chromatography 7960 column heater. Twenty-five microliter injections were made with a Waters WISP 712 autosampler. Detection was accomplished with a Kratos 783 UV detector at 360 nm. The percentage of the DLD isomer was calculated using the peak areas of the DLL and DLD isomers in the chromatograms and the following equation: [formula]

factor Xa = target: T1, factor Xa (Homo sapiens, UniProt P00742); experiment: Serine protease inhibition (Kass), factor Xa; type: biochemical
T1 construct: Human factors X, Xa, IXa, XIa, and XIIa are purchased from Enzyme Research Laboratories; purchased Enzyme Research Laboratories, South Bend, Ind
T1 sequence (P00742 235-488 limits assumed): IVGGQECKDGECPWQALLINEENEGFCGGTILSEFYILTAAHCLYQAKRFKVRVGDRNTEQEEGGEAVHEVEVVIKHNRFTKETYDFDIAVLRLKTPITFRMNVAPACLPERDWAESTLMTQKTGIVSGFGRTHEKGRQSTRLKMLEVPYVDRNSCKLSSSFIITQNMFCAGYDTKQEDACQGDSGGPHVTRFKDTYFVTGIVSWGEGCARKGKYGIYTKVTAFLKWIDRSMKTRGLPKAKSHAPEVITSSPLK
T1 sequence (P00742 41-179 partner limits assumed): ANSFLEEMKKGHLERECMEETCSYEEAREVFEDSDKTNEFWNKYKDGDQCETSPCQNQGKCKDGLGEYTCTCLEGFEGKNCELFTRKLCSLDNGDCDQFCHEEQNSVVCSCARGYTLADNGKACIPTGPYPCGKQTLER
Outline: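 Chromogenic p-nitroanilide substrate assays run as for human thrombin; trypsin with N-Benzoyl-Phe-Val-Arg-p-nitroanilide, human factor Xa with N-Benzoyl-Ile-Glu-Gly-Arg-p-nitroanilide. Values are association constants (Kass).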

N=C(N)NCCCC(C=O)NC(=O)C1CCCN1C(=O)C1CC2CCCCC2CN1.O=S(=O)(O)O [80 (Step F), D-3-(cis)Piq-Pro-Arg-H.H2 SO4]
Percentage of DLD Isomer ([1]; sodium bisulfite 0 mM, 0 hr): 4.84%
Percentage of DLD Isomer ([1]; sodium bisulfite 0 mM, 0.5 hr): 46.00%
Percentage of DLD Isomer ([1]; sodium bisulfite 0 mM, 1 hr): 49.42%
Percentage of DLD Isomer ([1]; sodium bisulfite 0 mM, 2 hr): 49.53%
Percentage of DLD Isomer ([1]; sodium bisulfite 0 mM, 3 hr): 50.16%
Percentage of DLD Isomer ([1]; sodium bisulfite 0 mM, 4 hr): 50.36%
Percentage of DLD Isomer ([1]; sodium bisulfite 0 mM, 6 hr): 49.71%
Percentage of DLD Isomer ([1]; sodium bisulfite 0 mM, 8 hr): 49.92%
Percentage of DLD Isomer ([1]; sodium bisulfite 5 mM, 0 hr): 4.23%
Percentage of DLD Isomer ([1]; sodium bisulfite 5 mM, 0.5 hr): 43.52%
Percentage of DLD Isomer ([1]; sodium bisulfite 5 mM, 1 hr): 48.99%
Percentage of DLD Isomer ([1]; sodium bisulfite 5 mM, 2 hr): 47.98%
Percentage of DLD Isomer ([1]; sodium bisulfite 5 mM, 3 hr): 49.89%
Percentage of DLD Isomer ([1]; sodium bisulfite 5 mM, 4 hr): 49.90%
Percentage of DLD Isomer ([1]; sodium bisulfite 5 mM, 6 hr): 49.80%
Percentage of DLD Isomer ([1]; sodium bisulfite 5 mM, 8 hr): 50.08%
Percentage of DLD Isomer ([1]; sodium bisulfite 15 mM, 0 hr): 4.16%
Percentage of DLD Isomer ([1]; sodium bisulfite 15 mM, 0.5 hr): 27.80%
Percentage of DLD Isomer ([1]; sodium bisulfite 15 mM, 1 hr): 40.63%
Percentage of DLD Isomer ([1]; sodium bisulfite 15 mM, 2 hr): 45.06%
Percentage of DLD Isomer ([1]; sodium bisulfite 15 mM, 3 hr): 45.72%
Percentage of DLD Isomer ([1]; sodium bisulfite 15 mM, 4 hr): 49.24%
Percentage of DLD Isomer ([1]; sodium bisulfite 15 mM, 6 hr): 49.63%
Percentage of DLD Isomer ([1]; sodium bisulfite 15 mM, 8 hr): 49.99%
Percentage of DLD Isomer ([1]; sodium bisulfite 25 mM, 0 hr): 3.71%
Percentage of DLD Isomer ([1]; sodium bisulfite 25 mM, 0.5 hr): 4.56%
Percentage of DLD Isomer ([1]; sodium bisulfite 25 mM, 1 hr): 5.14%
Percentage of DLD Isomer ([1]; sodium bisulfite 25 mM, 2 hr): 5.31%
Percentage of DLD Isomer ([1]; sodium bisulfite 25 mM, 3 hr): 5.79%
Percentage of DLD Isomer ([1]; sodium bisulfite 25 mM, 4 hr): 6.06%
Percentage of DLD Isomer ([1]; sodium bisulfite 25 mM, 6 hr): 6.39%
Percentage of DLD Isomer ([1]; sodium bisulfite 25 mM, 8 hr): 6.72%

CN[C@H](CC1CCCCC1)C(=O)N1CCC[C@H]1C(=O)N[C@H](C=O)CCCNC(=N)N.Cl [Example 75, N-methyl-D-cyclohexylalanyl-L-Prolinyl-L-Arginine Aldehyde Hydrochloride] (H-[dNMeCha]-Pro-Arg-aldehyde)
Kass Xa (factor Xa): 5.6 L/mol × 10^6
